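Cultured in 96-well plates, cells were exposed to test compound for 48 hours across five concentrations. At the GI50, growth is halved.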 Activity calls are given as the source filed them. Cut-off read from the data, not from the text of the source: active = GI50 up to about 1.1 µM and inactive = higher.
Key:
Assay in all cases: NCI tumour cell line growth inhibition, 48 h
[1] = test system: COLO 205
[2] = test system: HCT-116
[3] = test system: OVCAR-5
[4] = test system: KM12
[5] = test system: NCI-H23
[6] = test system: LOX IMVI
[7] = test system: A498
[8] = test system: SN12C
[9] = test system: EKVX
[10] = test system: OVCAR-4
[11] = test system: SW-620
[12] = test system: Malme-3M
[13] = test system: DMS-114
[14] = test system: UACC-257
[15] = test system: K562
[16] = test system: HOP-92
[17] = test system: NCI-H460
[18] = test system: CAKI-1
[19] = test system: A549

With `CCOC12OC3=C(CC1CC1=C(CCC1=O)O2)C(=O)CC3` (configuration not stated) the GI50 [1] was > 100 µM (inactive), the GI50 [2] was > 100 µM (inactive) and the GI50 [3] was > 100 µM (inactive). For the same molecule, the GI50 [4] was > 100 µM (inactive), the GI50 [5] was > 100 µM (inactive) and the GI50 [6] was > 100 µM (inactive). For the same molecule, the GI50 [7] was > 100 µM (inactive), the GI50 [8] was > 100 µM (inactive) and the GI50 [9] was > 100 µM (inactive). The GI50 [10] was > 100 µM (inactive), the GI50 [11] was > 100 µM (inactive) and the GI50 [12] was > 100 µM (inactive). For the same molecule, the GI50 [13] was > 100 µM (inactive), the GI50 [14] was > 100 µM (inactive) and the GI50 [15] was > 100 µM (inactive). The GI50 [16] was > 100 µM (inactive), the GI50 [17] was > 100 µM (inactive) and the GI50 [18] was > 100 µM (inactive). For the same molecule, the GI50 [19] was > 100 µM (inactive).
With `Cc1ccc(Sc2ccc(C)cc2[N+](=O)[O-])c([N+](=O)[O-])c1` the GI50 [1] was > 100 µM (inactive), the GI50 [2] was > 100 µM (inactive) and the GI50 [3] was > 100 µM (inactive). For the same molecule, the GI50 [4] was > 100 µM (inactive), the GI50 [5] was > 100 µM (inactive) and the GI50 [6] was > 100 µM (inactive). For the same molecule, the GI50 [7] was > 100 µM (inactive), the GI50 [8] was > 100 µM (inactive) and the GI50 [9] was > 100 µM (inactive). The GI50 [10] was > 100 µM (inactive), the GI50 [11] was > 100 µM (inactive) and the GI50 [12] was > 100 µM (inactive). The GI50 [13] was > 100 µM (inactive), the GI50 [14] was > 10 µM (inactive) and the GI50 [15] was > 100 µM (inactive). The GI50 [16] was > 100 µM (inactive), the GI50 [17] was > 100 µM (inactive) and the GI50 [18] was > 10 µM (inactive). The GI50 [19] was > 100 µM (inactive).
With `CC[C@H]1[C@@H](C)C=C[C@@H](C)N1S(=O)(=O)c1ccc(C)cc1` the GI50 [1] was > 100 µM (inactive), the GI50 [2] was 51.6 µM (inactive) and the GI50 [3] was > 100 µM (inactive). The GI50 [4] was > 100 µM (inactive), the GI50 [5] was > 100 µM (inactive) and the GI50 [6] was > 100 µM (inactive). For the same molecule, the GI50 [7] was > 100 µM (inactive), the GI50 [8] was 92.7 µM (inactive) and the GI50 [9] was > 100 µM (inactive). For the same molecule, the GI50 [10] was > 100 µM (inactive), the GI50 [11] was > 100 µM (inactive) and the GI50 [12] was > 100 µM (inactive). The GI50 [13] was 19.1 µM (inactive), the GI50 [14] was > 100 µM (inactive) and the GI50 [15] was 89.9 µM (inactive). The GI50 [17] was > 10 µM (inactive), the GI50 [18] was > 100 µM (inactive) and the GI50 [19] was > 100 µM (inactive).
For `COc1ccc([C@@H]2OC(=O)C3C2C(=O)O[C@H]3c2ccc(OC)cc2)cc1` (some centres not stated), the GI50 [1] was > 100 µM (inactive), the GI50 [2] was > 100 µM (inactive) and the GI50 [4] was > 100 µM (inactive). The GI50 [5] was > 100 µM (inactive), the GI50 [7] was > 100 µM (inactive) and the GI50 [8] was > 100 µM (inactive). For the same molecule, the GI50 [9] was > 100 µM (inactive), the GI50 [10] was > 100 µM (inactive) and the GI50 [11] was > 100 µM (inactive). The GI50 [13] was > 100 µM (inactive), the GI50 [14] was > 100 µM (inactive) and the GI50 [15] was > 100 µM (inactive). For the same molecule, the GI50 [16] was 0.209 µM (active), the GI50 [17] was > 100 µM (inactive) and the GI50 [18] was > 100 µM (inactive). For the same molecule, the GI50 [19] was > 100 µM (inactive).
`CC(=O)OCC1OC(N2C(=O)C(=O)c3ccccc32)C(OC(C)=O)C(OC(C)=O)C1OC(C)=O` (configuration not stated) was tested, and the GI50 [1] was > 100 µM (inactive), the GI50 [4] was > 100 µM (inactive) and the GI50 [5] was > 100 µM (inactive). For the same molecule, the GI50 [6] was > 100 µM (inactive), the GI50 [7] was > 100 µM (inactive) and the GI50 [8] was > 100 µM (inactive). The GI50 [9] was > 100 µM (inactive), the GI50 [10] was > 100 µM (inactive) and the GI50 [11] was > 100 µM (inactive). For the same molecule, the GI50 [12] was > 100 µM (inactive), the GI50 [13] was > 100 µM (inactive) and the GI50 [14] was > 100 µM (inactive). The GI50 [15] was > 100 µM (inactive), the GI50 [16] was > 100 µM (inactive) and the GI50 [17] was > 100 µM (inactive). The GI50 [18] was > 100 µM (inactive) and the GI50 [19] was > 100 µM (inactive).
With `CCOC(=O)[C-]([N+]#N)[Si](C)(C)C` the GI50 [1] was > 100 µM (inactive), the GI50 [2] was 53.1 µM (inactive) and the GI50 [3] was > 100 µM (inactive). The GI50 [4] was > 100 µM (inactive), the GI50 [5] was 75.5 µM (inactive) and the GI50 [6] was 85.9 µM (inactive). For the same molecule, the GI50 [7] was > 100 µM (inactive), the GI50 [8] was > 100 µM (inactive) and the GI50 [10] was > 100 µM (inactive). The GI50 [11] was > 100 µM (inactive), the GI50 [12] was > 100 µM (inactive) and the GI50 [13] was > 100 µM (inactive). For the same molecule, the GI50 [14] was 59.3 µM (inactive), the GI50 [16] was > 100 µM (inactive) and the GI50 [17] was > 100 µM (inactive). The GI50 [18] was > 100 µM (inactive) and the GI50 [19] was > 100 µM (inactive).
In the case of `Cc1cccc(C)c1NC(=O)CCC(=O)CC(=O)C(C)C`, the GI50 [1] is reported as > 100 µM (inactive), the GI50 [2] is reported as > 100 µM (inactive) and the GI50 [3] is reported as > 100 µM (inactive). For the same molecule, the GI50 [4] was > 100 µM (inactive), the GI50 [5] was > 100 µM (inactive) and the GI50 [7] was > 100 µM (inactive). The GI50 [8] was > 100 µM (inactive), the GI50 [9] was > 100 µM (inactive) and the GI50 [10] was > 100 µM (inactive). For the same molecule, the GI50 [11] was > 100 µM (inactive), the GI50 [12] was > 100 µM (inactive) and the GI50 [13] was > 100 µM (inactive). For the same molecule, the GI50 [14] was > 100 µM (inactive), the GI50 [15] was > 100 µM (inactive) and the GI50 [16] was > 100 µM (inactive). For the same molecule, the GI50 [17] was > 100 µM (inactive), the GI50 [18] was > 100 µM (inactive) and the GI50 [19] was > 100 µM (inactive).
`NC(=O)C(=O)N/N=C1\C(=O)N(c2ccc(Cl)cc2Cl)C(=O)C1C(=O)Nc1ccc(Cl)cc1Cl` (configuration not stated) was tested, and the GI50 [1] was > 100 µM (inactive), the GI50 [2] was > 100 µM (inactive) and the GI50 [3] was > 100 µM (inactive). For the same molecule, the GI50 [4] was > 100 µM (inactive), the GI50 [5] was > 100 µM (inactive) and the GI50 [6] was > 100 µM (inactive). For the same molecule, the GI50 [7] was > 100 µM (inactive), the GI50 [8] was > 100 µM (inactive) and the GI50 [9] was > 100 µM (inactive). For the same molecule, the GI50 [11] was > 100 µM (inactive), the GI50 [12] was > 100 µM (inactive) and the GI50 [13] was > 100 µM (inactive). The GI50 [14] was > 100 µM (inactive), the GI50 [15] was > 100 µM (inactive) and the GI50 [16] was > 100 µM (inactive). For the same molecule, the GI50 [17] was > 100 µM (inactive), the GI50 [18] was > 100 µM (inactive) and the GI50 [19] was > 100 µM (inactive).
